# Values quoted from earlier work, collected in patent US20240000802A1, “DIFLUPREDNATE FOR REDUCING THE ADVERSE EFFECTS OF OCULAR INFLAMMATION” (SUN PHARMA ADVANCED RESEARCH COMPANY LIMITED, priority 2020, published 2024).
compound,measurement,value
CCCC(=O)O[C@]1(C(=O)COC(C)=O)CC[C@H]2[C@@H]3C[C@H](F)C4=CC(=O)C=C[C@]4(C)[C@@]3(F)[C@@H](O)C[C@@]21C [Difluprednate],solubility in aqueous vehicle,practically insoluble
